Measurements taken from PubChem BioAssay AID2060503 (Molecular Pharmacology Branch, DTP, NCI, 2025).

Tested on: 817829-284-R-J1-PDC complex spheroids, viability
Test: Anticancer human tumor 817829-284-R-J1-PDC patient-derived colon adenocarcinoma cell line growth inhibition [GQUAD]
Conditions: for IC50: curve of first compound; for viability, T/C: stronger effect = lower value
Summary of the method: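 Tumor cells were grown as complex spheroids with HUVEC endothelial cells and mesenchymal stem cells as stroma. G-quadruplex stabilizers were combined with targeted agents over half-log dilutions from near the clinical Cmax, or from 10 microM.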

[1] = second compound 0.0316 µM, first compound 0.0316 µM
[2] = second compound 0.0316 µM, first compound 0.1 µM
[3] = second compound 0.0316 µM, first compound 0.316 µM
[4] = second compound 0.0316 µM, first compound 1 µM
[5] = second compound 0.0316 µM, first compound 3.16 µM
[6] = second compound 0.0316 µM, first compound 10 µM
[7] = second compound 0.1 µM, first compound 0.0316 µM
[8] = second compound 0.1 µM, first compound 0.1 µM
[9] = second compound 0.1 µM, first compound 0.316 µM
[10] = second compound 0.1 µM, first compound 1 µM
[11] = second compound 0.1 µM, first compound 3.16 µM
[12] = second compound 0.1 µM, first compound 10 µM
[13] = second compound 0.316 µM, first compound 0.0316 µM
[14] = second compound 0.316 µM, first compound 0.1 µM
[15] = second compound 0.316 µM, first compound 0.316 µM
[16] = second compound 0.316 µM, first compound 1 µM
[17] = second compound 0.316 µM, first compound 3.16 µM
[18] = second compound 0.316 µM, first compound 10 µM
[19] = second compound 1 µM, first compound 0.0316 µM
[20] = second compound 1 µM, first compound 0.1 µM
[21] = second compound 1 µM, first compound 0.316 µM
[22] = second compound 1 µM, first compound 1 µM
[23] = second compound 1 µM, first compound 3.16 µM
[24] = second compound 1 µM, first compound 10 µM
[25] = second compound 3.16 µM, first compound 0.0316 µM
[26] = second compound 3.16 µM, first compound 0.1 µM
[27] = second compound 3.16 µM, first compound 0.316 µM
[28] = second compound 3.16 µM, first compound 1 µM
[29] = second compound 3.16 µM, first compound 3.16 µM
[30] = second compound 3.16 µM, first compound 10 µM
[31] = second compound 10 µM, first compound 0.0316 µM
[32] = second compound 10 µM, first compound 0.1 µM
[33] = second compound 10 µM, first compound 0.316 µM
[34] = second compound 10 µM, first compound 1 µM
[35] = second compound 10 µM, first compound 3.16 µM
[36] = second compound 10 µM, first compound 10 µM
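Also: spheroids exposed to agents for 7 days before readout.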
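For viability, T/C in this document: percent viability relative to DMSO vehicle control taken as 100%.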

## CC1COCCN1c1cc(C2(O)CC3CCC(C2)O3)c2cnn(-c3ccn[nH]3)c2n1 (centres undefined) + Cc1cnc(CNC(=O)c2c(=O)c3ccc(N4CCCN(C)CC4)nc3n3c2sc2ccccc23)cn1
Second compound 0.0316 µM
  IC50: < 31.6 nM
Second compound 0.1 µM
  IC50: < 31.6 nM
Second compound 0.316 µM
  IC50: < 31.6 nM
Second compound 1 µM
  IC50: < 31.6 nM
Second compound 3.16 µM
  IC50: < 31.6 nM
Second compound 10 µM
  IC50: < 31.6 nM
[1]
  viability, T/C: 12.8%
[2]
  viability, T/C: 9.62%
[3]
  viability, T/C: 7.9%
[4]
  viability, T/C: 5.56%
[5]
  viability, T/C: 5.19%
[6]
  viability, T/C: 3.22%
[7]
  viability, T/C: 12.9%
[8]
  viability, T/C: 10.7%
[9]
  viability, T/C: 8.05%
[10]
  viability, T/C: 5.97%
[11]
  viability, T/C: 4.94%
[12]
  viability, T/C: 2.88%
[13]
  viability, T/C: 13.1%
[14]
  viability, T/C: 9.42%
[15]
  viability, T/C: 6.75%
[16]
  viability, T/C: 6.83%
[17]
  viability, T/C: 4.09%
[18]
  viability, T/C: 2.08%
[19]
  viability, T/C: 12.2%
[20]
  viability, T/C: 11.2%
[21]
  viability, T/C: 6.62%
[22]
  viability, T/C: 5.07%
[23]
  viability, T/C: 3.93%
[24]
  viability, T/C: 1.59%
[25]
  viability, T/C: 12.6%
[26]
  viability, T/C: 9.23%
[27]
  viability, T/C: 6.99%
[28]
  viability, T/C: 3.25%
[29]
  viability, T/C: 0.81%
[30]
  viability, T/C: 0.2%
[31]
  viability, T/C: 0.05%
[32]
  viability, T/C: 0.1%
[33]
  viability, T/C: 0.14%
[34]
  viability, T/C: 0.08%
[35]
  viability, T/C: 0.14%
[36]
  viability, T/C: 0.12%

## CC(C)(O)C1CCC(Nc2ccc3ncc(-c4cccc(C(F)(F)F)c4)n3n2)CC1 (centres undefined) + CN(C)c1ccc(Nc2c3ccc(NC(=O)CCN4CCCC4)cc3nc3cc(NC(=O)CCN4CCCC4)ccc23)cc1
Second compound 0.0316 µM
  IC50: > 10000 nM
Second compound 0.1 µM
  IC50: 3130 nM
Second compound 0.316 µM
  IC50: 2570 nM
Second compound 1 µM
  IC50: 2260 nM
Second compound 3.16 µM
  IC50: 2100 nM
Second compound 10 µM
  IC50: 1170 nM
[1]
  viability, T/C: 102%
[2]
  viability, T/C: 100%
[3]
  viability, T/C: 111%
[4]
  viability, T/C: 88.4%
[5]
  viability, T/C: 35.7%
[6]
  viability, T/C: 64.8%
[7]
  viability, T/C: 98%
[8]
  viability, T/C: 101%
[9]
  viability, T/C: 90.3%
[10]
  viability, T/C: 95.9%
[11]
  viability, T/C: 39.9%
[12]
  viability, T/C: 59.2%
[13]
  viability, T/C: 97.5%
[14]
  viability, T/C: 97%
[15]
  viability, T/C: 86.8%
[16]
  viability, T/C: 97.1%
[17]
  viability, T/C: 33.4%
[18]
  viability, T/C: 47.3%
[19]
  viability, T/C: 92.9%
[20]
  viability, T/C: 103%
[21]
  viability, T/C: 95.8%
[22]
  viability, T/C: 93.5%
[23]
  viability, T/C: 28.9%
[24]
  viability, T/C: 35.1%
[25]
  viability, T/C: 96.5%
[26]
  viability, T/C: 97.3%
[27]
  viability, T/C: 87.9%
[28]
  viability, T/C: 83.3%
[29]
  viability, T/C: 31.6%
[30]
  viability, T/C: 23.2%
[31]
  viability, T/C: 96%
[32]
  viability, T/C: 102%
[33]
  viability, T/C: 87.2%
[34]
  viability, T/C: 58.5%
[35]
  viability, T/C: 5.62%
[36]
  viability, T/C: 2.44%
